Entries after “also recorded” stand apart in the source; their conditions may differ.
How the values were obtained:
Mrgprs = assay: Calcium imaging of transfected HeLa cells, statements on Mrgprs not named singly; assay type: cell-based; settings: for inhibition of activation of Mrgprs by SP: FIG. 6a: cells pretreated with inhibitor 10 minutes
Procedure: They were then mixed and incubated at RT for 20 minutes prior to being added to HeLa cells. HeLa cells were grown to confluence, trypsinized and 1×10^6 cells were pelleted in a 15 ml tube by centrifugation at 1000 rpm for 5 minutes. The DMEM-LIPOFECTAMINE 2000-DNA mixture (1 ml) was then added to the cell pellet, suspended and incubated at RT for 5 minutes. 2 ml of complete DMEM with 10% FBS without antibiotics were added to the tube, mixed by inverting the tube, plated into a 96-well glass bottom plate at 50,000 cells/well, and placed in a 37° C. CO2 incubator for 3 hours. HeLa cells transfected with salmon sperm DNA were plated as a control. The medium was changed after 3 hours and left in the incubator. 24 hours after transfection, the medium in the wells was removed and 100 μl of complete DMEM containing 2 μM of FURA-2 were added to each well and left at room temperature in the dark for 1 hr. Following loading with FURA-2, the medium was removed, washed with PBS and replaced with 90 μl of HEPES-buffered saline (20 mM HEPES, 115 mM NaCl, 5.4 mM KCl, 2 mM CaCl2, 0.8 mM MgCl2, 13.8 mM glucose, pH 7.4). Calcium imaging was performed immediately after loading cells with Fura-2, using a ZEISS Axiovert 200M microscope platform equipped with a flipping filter wheel for ratiometric imaging. Axiovision software, version 4.6 was used for calcium image analysis of the cells excited at 340 nm and 380 nm. Agonists were added at 15 seconds after the start of the excitation procedure. […] The software later analyzed all images taken during each excitation period. Ratiometric changes were measured in 10-20 cells in each individual experiment. An average of the fluorescence of the cells in each image was calculated and plotted against time in seconds.

MrgA1 (mouse MrgprA1) = target: T1, MrgA1 (mouse MrgprA1) (Mus musculus, UniProt Q91WW5); assay: Calcium imaging of cells transfected with the GPCR (Table 1); assay type: cell-based; settings: for inhibition of SP-induced activation of mouse MrgprA1: FIG. 6a: SP 5 μM, inhibitors 10 μM, FK888 10 μM; for activation of mouse MrgprA1 by the substance (in words): NPFF 50 μM, SP at nanomolar concentrations
T1 construct: host or cells: HeLa cells
T1 sequence (Q91WW5 1-304): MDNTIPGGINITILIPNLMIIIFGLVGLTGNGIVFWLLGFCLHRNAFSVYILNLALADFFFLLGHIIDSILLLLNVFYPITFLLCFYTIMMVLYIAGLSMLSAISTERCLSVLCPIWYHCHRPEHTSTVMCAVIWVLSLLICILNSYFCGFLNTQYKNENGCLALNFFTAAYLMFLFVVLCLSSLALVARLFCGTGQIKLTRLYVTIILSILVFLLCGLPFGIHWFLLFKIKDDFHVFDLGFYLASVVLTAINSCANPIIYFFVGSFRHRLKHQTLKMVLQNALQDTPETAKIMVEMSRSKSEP
Procedure: human MRGPRX2 was isolated by PCR from human genomic DNA using the forward and reverse primers, […] (SEQ. ID. NO: 3) and […] (SEQ. ID. NO: 4), and cloned into pcDNA3.1(−). The mouse MrgprA1 cDNA expression clone was purchased from ORIGENE Technologies. The mouse MrgprB2 coding sequences were PCR-amplified from mouse genomic DNA using the primer pair, […] (SEQ. ID. NO: 5) and […] (SEQ. ID. NO: 6), and cloned into pcDNA3.1 (−).
10 μg of expression vector (human MRGPRX2, mouse MrgprA1 or NK1) and 10 μl of LIPOFECTAMINE 2000 transfection reagent were diluted into 0.5 ml of DMEM and separately left at room temperature (RT) for 5 min. They were then mixed and incubated at RT for 20 minutes prior to being added to HeLa cells. HeLa cells were grown to confluence, trypsinized and 1×10^6 cells were pelleted in a 15 ml tube by centrifugation at 1000 rpm for 5 minutes. The DMEM-LIPOFECTAMINE 2000-DNA mixture (1 ml) was then added to the cell pellet, suspended and incubated at RT for 5 minutes. 2 ml of complete DMEM with 10% FBS without antibiotics were added to the tube, mixed by inverting the tube, plated into a 96-well glass bottom plate at 50,000 cells/well, and placed in a 37° C. CO2 incubator for 3 hours. HeLa cells transfected with salmon sperm DNA were plated as a control. The medium was changed after 3 hours and left in the incubator. 24 hours after transfection, the medium in the wells was removed and 100 μl of complete DMEM containing 2 μM of FURA-2 were added to each well and left at room temperature in the dark for 1 hr. Following loading with FURA-2, the medium was removed, washed with PBS and replaced with 90 μl of HEPES-buffered saline (20 mM HEPES, 115 mM NaCl, 5.4 mM KCl, 2 mM CaCl2, 0.8 mM MgCl2, 13.8 mM glucose, pH 7.4).
Calcium imaging was performed immediately after loading cells with Fura-2, using a ZEISS Axiovert 200M microscope platform equipped with a flipping filter wheel for ratiometric imaging. Axiovision software, version 4.6 was used for calcium image analysis of the cells excited at 340 nm and 380 nm. Agonists were added at 15 seconds after the start of the excitation procedure. Antagonists were added five minutes before imaging with the agonists. Images were taken every 5 seconds, including at zero time, during a 90 second period or longer if required. The software later analyzed all images taken during each excitation period. Ratiometric changes were measured in 10-20 cells in each individual experiment. An average of the fluorescence of the cells in each image was calculated and plotted against time in seconds.
HeLa cells transfected with human MRGPRX2, mouse MrgprA1 and NK1 cDNAs were subjected to ratiometric imaging as described above with SP at concentrations from 0.1 nM-50 μM. Each of the concentration dependent readings was performed in triplicate. Maximum intensities at each of the dilutions were calculated and plotted against concentration using GraphPad Prism software. Error bars represent SEM.
The top row lists ligands that have been tested versus the various receptors, both in the absence and presence of QWF.

Molecule	inhibition of SP-induced activation of mouse MrgprA1 (MrgA1 (mouse MrgprA1))	inhibition of activation of Mrgprs by SP (Mrgprs)	activation of mouse MrgprA1 by the substance (in words) (MrgA1 (mouse MrgprA1))	further results
FC(F)(F)c1cc(CO[C@H]2CCCN[C@H]2c2ccccc2)cc(C(F)(F)F)c1 [L-733060]	did not impact	did not impact	–	inhibition of activation of Mrgprs by SP (Mrgprs; listed as L733060): do not inhibit; inhibition of SP-induced activation of mouse MrgprA1 (MrgA1 (mouse MrgprA1); listed as L733060): not
C[C@@H](O[C@H]1OCCN(Cc2n[nH]c(=O)[nH]2)[C@H]1c1ccc(F)cc1)c1cc(C(F)(F)F)cc(C(F)(F)F)c1 [aprepitant]	did not impact and not	did not impact; also recorded: do not inhibit	–	–
Boc-Gln-D-Trp(Formyl)-Phe benzyl ester trifluoroacetate [QWF]	excellent inhibitor; also recorded: potent antagonist; also recorded: inhibits; also recorded: blocks	blocks	–	inhibition of activation of Mrgprs by compound 48/80 (Mrgprs; FIG. 7b: compound 48/80 1 μM, QWF 1 μM): antagonizes; also recorded: inhibits; inhibition of mMrgprA1 activation by compound 48/80 (MrgA1 (mouse MrgprA1)): inhibits
SLIGRL: tethered hexapeptide ligand of mouse PAR2 (SEQ ID NO: 7)	–	–	activates	–
SP: inflammatory undecapeptide neuropeptide of the tachykinin family, synthesized by GenScript	–	–	activates; also recorded: specifically activated	–

Reference: patent US10426815B2, “Prevention and treatment of itch with an MRGPR antagonist” (THE GENERAL HOSPITAL CORPORATION, priority 2015, dated 2019)
